Experiments:
Experiment in all cases: relative viability (nuclei count vs DMSO), 5 days (fraction); higher = more cells survive
Dinaciclib + Palbociclib = compound: CCc1cnn2c(NCc3ccc[n+]([O-])c3)cc(N3CCCC[C@H]3CCO)nc12 [Dinaciclib] + CC(=O)c1c(C)c2cnc(Nc3ccc(N4CCNCC4)cn3)nc2n(C2CCCC2)c1=O [Palbociclib] (partner 0.5 µM)
Method in brief: (§1)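 Dosing by pin tool came one day after lung cancer cell lines were seeded in 1536-well plates, using either one drug or a fixed anchor-drug dose plus five library-drug doses (not always all listed) in √10 steps. After 5 days, nuclei were counted on 4× images. Relative viability is treated-well nuclei count divided by vehicle-well nuclei count, and values are medians of duplicate plates.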

Dinaciclib + Luminespib = compound: CCc1cnn2c(NCc3ccc[n+]([O-])c3)cc(N3CCCC[C@H]3CCO)nc12 [Dinaciclib] + CCNC(=O)c1noc(-c2cc(C(C)C)c(O)cc2O)c1-c1ccc(CN2CCOCC2)cc1 [Luminespib] (partner 0.01 µM)
Method in brief: as §1

Dinaciclib + Linsitinib = compound: CCc1cnn2c(NCc3ccc[n+]([O-])c3)cc(N3CCCC[C@H]3CCO)nc12 [Dinaciclib] + C[C@]1(O)C[C@@H](c2nc(-c3ccc4ccc(-c5ccccc5)nc4c3)c3c(N)nccn32)C1 [Linsitinib] (partner 1 µM)
Method in brief: as §1

Dinaciclib + AZD7762 = compound: CCc1cnn2c(NCc3ccc[n+]([O-])c3)cc(N3CCCC[C@H]3CCO)nc12 [Dinaciclib] + NC(=O)Nc1cc(-c2cccc(F)c2)sc1C(=O)N[C@H]1CCCNC1 [AZD7762] (partner 0.2 µM)
Method in brief: as §1

Dinaciclib + Olaparib = compound: CCc1cnn2c(NCc3ccc[n+]([O-])c3)cc(N3CCCC[C@H]3CCO)nc12 [Dinaciclib] + O=C(c1cc(Cc2n[nH]c(=O)c3ccccc23)ccc1F)N1CCN(C(=O)C2CC2)CC1 [Olaparib] (partner 8 µM)
Method in brief: as §1

Cell Line	relative viability (Dinaciclib + Palbociclib; first compound 0.009487 µM)	relative viability (Dinaciclib + Palbociclib; first compound 0.03 µM)	relative viability (Dinaciclib + Palbociclib; first compound 0.09487 µM)	relative viability (Dinaciclib + Palbociclib; first compound 0.3 µM)	relative viability (Dinaciclib + Luminespib; first compound 0.009487 µM)	relative viability (Dinaciclib + Luminespib; first compound 0.03 µM)	relative viability (Dinaciclib + Luminespib; first compound 0.09487 µM)	relative viability (Dinaciclib + Luminespib; first compound 0.3 µM)	relative viability (Dinaciclib + Linsitinib; first compound 0.009487 µM)	relative viability (Dinaciclib + Linsitinib; first compound 0.03 µM)	relative viability (Dinaciclib + Linsitinib; first compound 0.09487 µM)	relative viability (Dinaciclib + Linsitinib; first compound 0.3 µM)	relative viability (Dinaciclib + AZD7762; first compound 0.009487 µM)	relative viability (Dinaciclib + AZD7762; first compound 0.03 µM)	relative viability (Dinaciclib + AZD7762; first compound 0.09487 µM)	relative viability (Dinaciclib + AZD7762; first compound 0.3 µM)	relative viability (Dinaciclib + Olaparib; first compound 0.009487 µM)	relative viability (Dinaciclib + Olaparib; first compound 0.03 µM)	relative viability (Dinaciclib + Olaparib; first compound 0.09487 µM)	relative viability (Dinaciclib + Olaparib; first compound 0.3 µM)
EMC-BAC-2	0.46	0.323	0.224	0.248	1.15	0.382	0.145	0.16	0.868	0.235	0.14	0.161	0.935	0.657	0.22	0.237	0.485	0.238	0.187	0.176
EPLC-272H	0.275	0.0744	0.0435	0.0386	0.2	0.0547	0.042	0.0355	1.29	0.665	0.33	0.0559	0.444	0.0986	0.0404	0.0369	0.274	0.0455	0.0344	0.036
H3255	0.315	0.257	0.232	0.225	0.813	0.72	0.204	0.18	1.09	0.493	0.177	0.186	1.04	0.62	0.209	0.208	0.536	0.253	0.2	0.19
HARA	0.204	0.126	0.0948	0.0798	0.367	0.0789	0.0403	0.0571	0.758	0.0716	0.0363	0.038	0.349	0.116	0.127	0.123	0.366	0.0835	0.0659	0.14
HCC-15	0.673	0.292	0.107	0.132	0.122	0.1	0.102	0.141	0.76	0.171	0.113	0.101	1.18	0.88	0.113	0.0634	0.494	0.199	0.106	0.119
HCC-44	0.9	0.798	0.367	0.342	0.61	0.2	0.179	0.17	0.461	0.119	0.122	0.103	0.999	1.05	0.351	0.327	1.07	0.556	0.361	0.272
HCC-78	0.432	0.374	0.253	0.3					0.556	0.348	0.116	0.14	0.941	0.637	0.226	0.209	0.713	0.198	0.168	0.202
HCC-366	0.272	0.0382	0.0205	0.0359					0.543	0.0298	0.0149	0.0167	0.406	0.0244	0.0268	0.0232	0.174	0.032	0.0277	0.0241

Reference: the supplement of paper PMC10307832
